# Read-outs that look alike come from different tables or passages of the source.
# Experiments:
# Fgfr3^Y367C/+ mice = system: Fgfr3^Y367C/+ mice
# Text: The Y367C mutation was introduced into exon 9 of the mouse Fgfr3 gene along with a NEO cassette flanked by LoxP recombination sites. Due to the CMV promoter, the expression of the Fgfr3 Fgfr3^Y367C/+ is ubiquitous. Off-spring consisted of both Fgfr3^Y367C/+ and Fgfr3+/+ wild-type (WT) littermates.
# Survival of pups was monitored daily during the 15 days of treatment and registered in treatment diaries.
# [1] = system: binding antibodies against CNP-38 (and CNP-22)
# Experimental: All subjects in the trial are being monitored for binding and, if relevant, neutralizing antibodies to CNP. […] Samples are collected in all subjects at screening visit, prior to initial dose, and post-dose at 1, 3, 6, 9 months+every 3 months for the duration of the study. Samples are analyzed using a fully validated anti-CNP antibody assay.
# Prior to analysis of clinical samples, the assay was fully validated following regulatory requirements from both EMAA and FDA. In this approach, biotinylated and ruthenylated CNP-38 were prepared as a master mix. Samples were incubated at minimum required dilution (MRD) in the master mix to form complex and then plated on an MSD streptavidin plate where the biotinylated CNP-38 could also bind. The samples were then detected by the ruthenium labelled CNP-38 within the bound complexes, using an MSD 5600 plate reader. The presence of anti-drug antibody present was determined by comparing the signal to a statistically derived threshold, the assay cut point.
# [2] = system: healthy adult male subjects
# [3] = system: prepubertal children with achondroplasia; details: for Overall Scoliosis Incidence, Baseline: baseline (prior to treatment)
# Experimental: X-rays (radiographs) were taken from subjects in the placebo group and cohort 4 in the Phase 2 Study trials, including those at the thoracolumbar spine (lateral and anterior-posterior/posterior-anterior (AP/PA)) and lower extremity (AP). The lateral X-rays (taken from the placebo group and the 100 μg/kg (cohort 4 group) at baseline and after 52 weeks of treatment were analyzed.
# Methodology: From the spine radiographs, aspects related to spinal stenosis, spinal curvature, and spinal height were measured. To assess the size of the spinal canal in the lumbar region (L1-L5), which is smaller in ACH, interpedicular distance (IPD) and pedicle width (PW) are measured on the anterior-posterior/posterior-anterior (AP/PA) and lateral radiographs, respectively. At each level of the lumbar spine, IPD is measured as the distance between the most medial aspects of the pedicles of the spinal canal, and PW is measured from the posterior vertebral body line to the posterior laminar line. Scoliosis is assessed by measuring Cobb angles in the proximal thoracic, main thoracic, and lumbar regions of the AP/PA spine radiograph. On the lateral spine radiograph, Cobb angles for kyphosis are assessed in the thoracic (TK) and thoracolumbar (TLK) region and for lordosis in the lumbar region (LL). Spinal heights (both thoracic and total) are measured on the AP/PA spine radiograph. • Scoliosis: Cobb angles of the proximal thoracic (T1-T3), main thoracic (T2-L1), and lumbar (L1-L5) regions • Kyphosis: Cobb angles of the thoracic (T5-T12, TK) and thoracolumbar (T10-L2, TLK) regions • Lordosis: Cobb angles of the lumbar (L1-L5, LL) region • Thoracic spine height (T1 to T12) and Total spine height (T1 to S1)
# As many of these parameters vary naturally during growth, published normative data from both healthy and ACH populations are being utilized to calculate Z-scores where possible. For spine kyphosis, data from Lee et al., 2012 (Journal of spinal disorders & techniques. 2012; 25(8):E259-63) and Abousamra et al. 2019 (Spine Deform. 2019 January; 7(1):163-170) were used to calculate Z-scores based on data from healthy and ACH children.
# A decrease of the (Posterior Height/Middle Width) ratio is indicative of a normalization of vertebral morphology.
# [4] = 50 and 100 μg/kg vs placebo, 52 weeks
# [5] = cohorts 3 and 4 vs placebo, 52 weeks, initial data
# [6] = single patient, after 52 weeks treatment
# [7] = single patient, after 52 weeks treatment (100 μg/kg/week)
# [8] = single patient, week 52, 100 μg/kg/week
substance,measurement,setting,value
Navepegritide [Compound (1)],"tolerability, adverse clinical signs","Fgfr3^Y367C/+ mice; Fgfr3^Y367C/+ pups, 15 days of treatment","well tolerated, and no adverse clinical signs were observed"
same,Number of mice surviving to day 15,"Fgfr3^Y367C/+ mice; Fgfr3^Y367C/+ pups, 5.6 mg/kg/day s.c., 15 days from day 1 after birth, 14 mice included",12
same,Number of mice surviving to day 15,"Fgfr3^Y367C/+ mice; Fgfr3^Y367C/+ pups, […] third day s.c., 13 mice included",11
same,survival of pups compared with untreated pups,"Fgfr3^Y367C/+ mice; either dose level, P<0.05, Log-rank (Mantel-Cox) test, untreated = vehicle treated and historic survival combined",significantly improved survival
same,registered incidence of maternal infanticide,Fgfr3^Y367C/+ mice; treated groups,marked reduction
same,anti-CNP binding antibodies,[1]; 1 to 9 months of repeated weekly exposure,No anti-CNP binding antibodies have been detected
same,treatment emergent anti-CNP antibodies,[1]; 57 patients followed for up to 65 weeks,no treatment emergent anti-CNP antibodies were detected
same,"post-dose samples, anti-CNP antibodies","[1]; samples at 1, 3, 6, 9 months + every 3 months",confirmed negative
same,"blood pressure, heart rate, or safety laboratory test results",[2]; all investigated doses,No clinically relevant dose-dependent trends were observed
same,mean apparent t1/2 of free CNP-38,"[2]; single s.c. dose up to 150 μg CNP/kg, dose-independent",120 h
same,immunogenic response,[2]; single s.c. doses,no evidence of immunogenic response
same,local tolerability findings,[2]; single s.c. doses,predominantly mild to moderate redness
same,most commonly reported (≥10% of subjects) treatment-emergent adverse events,[2]; single s.c. doses,"headache, contact dermatitis, postural dizziness, (orthostatic) tachycardia, dizziness, and orthostatic hypotension"
same,serious adverse effects or deaths,[2]; single s.c. doses,no serious adverse effects (AEs) or deaths reported
same,severity of most TEAEs,[2]; single s.c. doses,mild or moderate
same,tolerability,"[2]; single s.c. doses up to 150 μg CNP/kg, all investigated doses",generally well tolerated
same,"TLK Z-score (Healthy), Week 52 Change from Baseline (Mean ± SD)","[3]; 100 μg/kg/week, n 5, p < 0.05 vs placebo (ANCOVA), placebo −0.19 (0.318)",−1.004 (0.614)
same,"TLK Z-score (ACH), Week 52 Change from Baseline (Mean ± SD)","[3]; 100 μg/kg/week, n 6, p < 0.05 vs placebo (ANCOVA), placebo −0.052 (0.242)",−0.416 (0.412)
same,"TLK, Week 52 Change from Baseline (Mean ± SD)","[3]; 100 μg/kg/week, n 6, placebo −[…] (2.61)",−7.17 (4.94) degrees
same,interpedicular distance (IPD),[3]; [4],no clear effect
same,pedicular width (PW),[3]; [4],trend for patients on treatment to have an increase
same,"Overall Scoliosis Incidence, After 52 weeks of Treatment","[3]; Cohort 3, 50 μg/kg",0 out of 9
same,"Overall Scoliosis Incidence, Baseline","[3]; Cohort 3, 50 μg/kg",3 out of 9
same,"Overall Scoliosis Incidence, After 52 weeks of Treatment","[3]; Cohort 4, 100 μg/kg",1 out of 9
same,"Overall Scoliosis Incidence, Baseline","[3]; Cohort 4, 100 μg/kg",3 out of 9
same,thoracolumbar kyphosis,[3]; cohort 4 after 52 weeks of treatment,statistically significant reduction
same,kyphosis Cobb Angle,[3]; [5],trend for a dose dependent reduction
same,scoliosis main thoracic Cobb Angle,[3]; [5],trend for a dose dependent reduction
same,lumbar lordosis,[3]; phase 2 and open label extension trial,slight trend for an increase
same,"Patient Angle, thoracic kyphosis (TK)","[3]; single patient one, baseline",11.6 degrees
same,"L1 vertebra LW, change from baseline",[3]; [6],Δ4.1 mm
same,"L1 vertebra MH, change from baseline",[3]; [6],Δ1.4 mm
same,"L1 vertebra MW, change from baseline",[3]; [6],Δ5.9 mm
same,"L1 vertebra PH, change from baseline",[3]; [6],Δ1.5 mm
same,L1 vertebra LW (Lower Width),[3]; [7],22.9 mm
same,L1 vertebra MH (Middle Height),[3]; [7],15.0 mm
same,L1 vertebra MW (Middle Width),[3]; [7],14.6 mm
same,L1 vertebra PH (Posterior height),[3]; [7],15.8 mm
same,L1 vertebra PH/MW,[3]; [7],108 mm
same,"L1 vertebra PH/MW, change from baseline","[3]; single patient, after 52 weeks treatment, [~80@T12/12]",Δ−56 [~80@T12/12] mm
same,L1 vertebra LW (Lower Width),"[3]; single patient, baseline",18.8 mm
same,L1 vertebra MH (Middle Height),"[3]; single patient, baseline",13.6 mm
same,L1 vertebra MW (Middle Width),"[3]; single patient, baseline",8.7 mm
same,L1 vertebra PH (Posterior height),"[3]; single patient, baseline",14.3 mm
same,L1 vertebra PH/MW,"[3]; single patient, baseline",164 mm
same,"Patient Angle, lumbar lordosis (LL)","[3]; single patient, baseline",58.3 degrees
same,"Patient Angle, thoraco-lumbar kyphosis (TLK)","[3]; single patient, baseline",24.0 degrees
same,apical wedging and shape of L1 vertebra on radiographs,"[3]; single patient, baseline vs 52 weeks of treatment",noted decrease in apical wedging and normalization of the L1 vertebra
same,Patient Z-score TK3,"[3]; single patient, baseline, reference population 3 (Abousamra 2019) 20.0 ± 12.5",−0.7
same,Patient Z-score TLK3,"[3]; single patient, baseline, reference population 3, 18.5 ± 13.2",0.4
same,Patient Z-score LL3,"[3]; single patient, baseline, reference population 3, 66.7 ± 17.5",−0.5
same,Patient Z-score TLK2,"[3]; single patient, baseline, reference population 5.0 ± 7.2",2.6
same,Patient Z-score TK2,"[3]; single patient, baseline, reference population 31.6 ± 9.2",−2.2
same,Patient Z-score LL2,"[3]; single patient, baseline, reference population 44.4 ± 9.4",1.5
same,"Patient Angle, lumbar lordosis (LL)",[3]; [8],60.2 degrees
same,"Patient Angle, thoracic kyphosis (TK)",[3]; [8],12.6 degrees
same,"Patient Angle, thoraco-lumbar kyphosis (TLK)",[3]; [8],9.1 degrees
same,Patient Z-score TK2,"[3]; single patient, week 52, 100 μg/kg/week, reference 31.6 ± 9.2",−2.1
same,Patient Z-score TLK2,"[3]; single patient, week 52, reference 5 ± 7.2",0.6
same,Patient Z-score LL2,"[3]; single patient, week 52, reference 44.4 ± 9.4",1.7
same,Patient Z-score TLK3,"[3]; single patient, week 52, reference population 3, 18.5 ± 12.0",−0.6
same,Patient Z-score TK3,"[3]; single patient, week 52, reference population 3, 19.7 ± 13.2",−0.5
same,Patient Z-score LL3,"[3]; single patient, week 52, reference population 3, 66.0 ± 15.5",−0.4
